# Measured values from patent US11690902B2 (priority 2018, dated 2023).
# “Also recorded” adds a separate entry of the source.
# Assays:
# [1] = test system: splenocytes from tgHLA-DR3 mice; details: in vivo; for # of mice responding: mouse
# [2] = test system: human PBMCs of individuals naturally exposed to C. burnetii; type: cell-based
# DRB1*0301 = target: T1, DRB1*0301 (Homo sapiens, UniProt P01903+P01911, A100K/A102G/A103R/A169T/F55Y/I96L/K41T/L162R/M171V/P40S/Q125H/Q178H/Q39Y/R42S/S66N/T106N/T262R/W38E/Y61H); test: HLA class II competition binding assay, DRB1*0301; details: peptides immunogenic in tgHLA-DR3 mice
# T1 construct: purchased Benaroya Institute, Seattle, Wash
sequence,measurement,setting,value
ISLLVFKNSHRVQLWAK [p28],"SFU, Mouse 1/3",[1],63
same,"SFU, Mouse 2/3",[1],54
same,"SFU, Mouse 3/3",[1],41
same,"SI (stimulation index), Mouse 1/3",[1],3.76
same,"SI (stimulation index), Mouse 2/3",[1],3.79
same,"SI (stimulation index), Mouse 3/3",[1],2.63
same,# of mice responding,[1],2
same,Donors recognizing peptides recognized solely by past asymptomatic subjects,[2],1/33
same,Human immunoreactive in at least one IGRA+ donor (category),[2],at least one IGRA + donor
QGHIINIGSISSHQV [p18],Highly antigenic / highly reactive peptide in the human cohort,[2],highly antigenic
KDDILEAVANMSVMDV [p3],Donors recognizing peptides recognized only within group C,[2],single
same,Human immunoreactive in at least one IGRA+ donor (category),[2],at least one IGRA + donor
IARYFMVNISQLIGEE [p21],Number of IGRA+ subjects recognizing the peptide,[2],8/56
same,Number of IGRA− subjects recognizing the peptide,[2],3/21
same,"Proportion of IGRA+ donors with IFNγ recall response to the peptide, SI cutoff of 2",[2],14.3%
same,Recall response frequency in IGRA− donors,[2],14.3%
PITKKQLKTMSNYEVIAK [p11],Recognition of HLA class II peptide by any subject,[2],not recognized by any subject
PAKINLARTYIAMED [p34],Recognition of HLA class II peptide by any subject,[2],not recognized by any subject
VAKLRGDLSSIIHKL [p37],Highly antigenic / highly reactive peptide in the human cohort,[2],highly antigenic
GLSWLTILKKRNNYRDSFN [p44],Human immunoreactive in at least one IGRA+ donor (category),[2],at least one IGRA + donor
EAVYKGFTPLKAEDIAEA [p19],Highly antigenic / highly reactive peptide in the human cohort,[2],highly antigenic
NAGIIRNKLKIQATIN [p43],"SFU, Mouse 1/3",[1],135
same,"SFU, Mouse 2/3",[1],65
same,"SFU, Mouse 3/3",[1],116
same,"SI (stimulation index), Mouse 1/3",[1],4.88
same,"SI (stimulation index), Mouse 2/3",[1],3.04
same,"SI (stimulation index), Mouse 3/3",[1],4.48
same,# of mice responding,[1],3
same,Donors recognizing peptides recognized solely by past asymptomatic subjects,[2],3/33
IDHLQQMTRQQVAMQTHK [p36],Binding to DRB1*0301 in vitro,DRB1*0301,all except one (p36) also showed binding
same,"SFU, Mouse 1/3",[1],52
same,"SFU, Mouse 2/3",[1],55
same,"SFU, Mouse 3/3",[1],0
same,"SI (stimulation index), Mouse 1/3",[1],3.44
same,"SI (stimulation index), Mouse 2/3",[1],3.86
same,"SI (stimulation index), Mouse 3/3",[1],0.86
same,# of mice responding,[1],2
same,Human immunoreactive in at least one IGRA+ donor (category),[2],at least one IGRA + donor
QNAFQLQETIVSTEN [p40],Recognition of HLA class II peptide by any subject,[2],not recognized by any subject
SEQITLQTAEKVGLNVA [p1],Donors recognizing peptides recognized only within group C,[2],multiple donors
same,Human immunoreactive in at least one IGRA+ donor (category),[2],at least one IGRA + donor
VPGYRNASSKRFVAP [p46],Highly antigenic / highly reactive peptide in the human cohort,[2],highly antigenic
RLGFMSFFTKAVVEALKRF [p22],Highly antigenic / highly reactive peptide in the human cohort,[2],highly reactive; also recorded: highly antigenic
SRAFLTANKNKPGVKT [p7],Human immunoreactive in at least one IGRA+ donor (category),[2],at least one IGRA + donor
FTFRSQDSRRVQEW [p13],Donors recognizing peptides recognized solely by past asymptomatic subjects,[2],1/33
same,Human immunoreactive in at least one IGRA+ donor (category),[2],at least one IGRA + donor
LAQYRELEAFSQFAS [p5],Human immunoreactive in at least one IGRA+ donor (category),[2],at least one IGRA + donor
SHEVLHAMSRGVEVLA [p6],Donors recognizing peptides recognized only within group C,[2],multiple donors
AIYFIGWYANLAHIKLGIS [p9],Recognition of HLA class II peptide by any subject,[2],not recognized by any subject
SDMWQALLAGKSGVK [p25],Donors recognizing peptides recognized solely by past asymptomatic subjects,[2],3/33
same,Human immunoreactive in at least one IGRA+ donor (category),[2],at least one IGRA + donor
GVAYTYNRANAGLPTNK [p45],Highly antigenic / highly reactive peptide in the human cohort,[2],highly antigenic
same,Number of IGRA+ subjects recognizing the peptide,[2],7/56
same,"Proportion of IGRA+ donors with IFNγ recall response to the peptide, SI cutoff of 2",[2],12.5%
LSSIIHKLTSFSKTEA [p38],Highly antigenic / highly reactive peptide in the human cohort,[2],highly antigenic
IKGWQEALTRMKPGAIWEI [p8],Human immunoreactive in at least one IGRA+ donor (category),[2],at least one IGRA + donor
DGRLEQLNSQNQQLQ [p33],Donors recognizing peptides recognized only within group C,[2],single
same,Donors recognizing peptides recognized solely by past asymptomatic subjects,[2],1/33
same,Human immunoreactive in at least one IGRA+ donor (category),[2],at least one IGRA + donor
REAVLFLVTIKELLEDP [p23],"SFU, Mouse 1/3",[1],69
same,"SFU, Mouse 2/3",[1],21
same,"SFU, Mouse 3/3",[1],63
same,"SI (stimulation index), Mouse 1/3",[1],2.30
same,"SI (stimulation index), Mouse 2/3",[1],1.89
same,"SI (stimulation index), Mouse 3/3",[1],2.47
same,# of mice responding,[1],2
same,Highly antigenic / highly reactive peptide in the human cohort,[2],highly antigenic
VFNITLQKVMAPELPVL [p35],Recognition of HLA class II peptide by any subject,[2],not recognized by any subject
PDYVLNAVNHIRYKP [p14],"SFU, Mouse 1/3",[1],157
same,"SFU, Mouse 2/3",[1],371
same,"SFU, Mouse 3/3",[1],11
same,"SI (stimulation index), Mouse 1/3",[1],7.94
same,"SI (stimulation index), Mouse 2/3",[1],20.21
same,"SI (stimulation index), Mouse 3/3",[1],1.42
same,# of mice responding,[1],2
same,Highly antigenic / highly reactive peptide in the human cohort,[2],highly reactive; also recorded: highly antigenic
DHAYKLAVSSTKSMT [p42],Donors recognizing peptides recognized solely by past asymptomatic subjects,[2],3/33
EHTIVVNASASEAAALQ [p10],"SFU, Mouse 1/3",[1],256
same,"SFU, Mouse 2/3",[1],82
same,"SFU, Mouse 3/3",[1],43
same,"SI (stimulation index), Mouse 1/3",[1],5.80
same,"SI (stimulation index), Mouse 2/3",[1],4.51
same,"SI (stimulation index), Mouse 3/3",[1],2.00
same,# of mice responding,[1],2
same,Donors recognizing peptides recognized only within group C,[2],multiple donors
same,Human immunoreactive in at least one IGRA+ donor (category),[2],at least one IGRA + donor
MMEHLQNITNLVSTGRQGA [p15],Highly antigenic / highly reactive peptide in the human cohort,[2],highly antigenic
AENVLIIHNKTLAHRYLA [p31],"SFU, Mouse 1/3",[1],0
same,"SFU, Mouse 2/3",[1],14
same,"SFU, Mouse 3/3",[1],84
same,"SI (stimulation index), Mouse 1/3",[1],0.88
same,"SI (stimulation index), Mouse 2/3",[1],1.72
same,"SI (stimulation index), Mouse 3/3",[1],4.32
same,# of mice responding,[1],1
same,Highly antigenic / highly reactive peptide in the human cohort,[2],highly reactive
LKDVVALRNQAQTAK [p41],"SFU, Mouse 1/3",[1],87
same,"SFU, Mouse 2/3",[1],30
same,"SFU, Mouse 3/3",[1],0
same,"SI (stimulation index), Mouse 1/3",[1],5.06
same,"SI (stimulation index), Mouse 2/3",[1],2.55
same,"SI (stimulation index), Mouse 3/3",[1],0.98
same,# of mice responding,[1],1
same,Human immunoreactive in at least one IGRA+ donor (category),[2],at least one IGRA + donor
TPTFVIGNKALTKFGF [p2],"SFU, Mouse 1/3",[1],120
same,"SFU, Mouse 2/3",[1],141
same,"SFU, Mouse 3/3",[1],18
same,"SI (stimulation index), Mouse 1/3",[1],6.63
same,"SI (stimulation index), Mouse 2/3",[1],8.28
same,"SI (stimulation index), Mouse 3/3",[1],1.53
same,# of mice responding,[1],2
same,Highly antigenic / highly reactive peptide in the human cohort,[2],highly reactive
TGEIVKMINQAKQSIYVQG [p32],"SFU, Mouse 1/3",[1],64
same,"SFU, Mouse 2/3",[1],70
same,"SFU, Mouse 3/3",[1],28
same,"SI (stimulation index), Mouse 1/3",[1],3.82
same,"SI (stimulation index), Mouse 2/3",[1],4.62
same,"SI (stimulation index), Mouse 3/3",[1],2.11
same,# of mice responding,[1],2
same,Human immunoreactive in at least one IGRA+ donor (category),[2],at least one IGRA + donor
DQRITQLKNLNSNNSDSSNDN [p49],Recognition of HLA class II peptide by any subject,[2],not recognized by any subject
QELEVAQNKAMSDFM [p39],Human immunoreactive in at least one IGRA+ donor (category),[2],at least one IGRA + donor
VARVSRLKDNFVVLEISKGTEITVQ [p29],Donors recognizing peptides recognized solely by past asymptomatic subjects,[2],1/33
same,Human immunoreactive in at least one IGRA+ donor (category),[2],at least one IGRA + donor
LKPFHFISSPTRDLQIA [p16],"SFU, Mouse 1/3",[1],180
same,"SFU, Mouse 2/3",[1],27
same,"SFU, Mouse 3/3",[1],19
same,"SI (stimulation index), Mouse 1/3",[1],8.94
same,"SI (stimulation index), Mouse 2/3",[1],2.05
same,"SI (stimulation index), Mouse 3/3",[1],1.94
same,# of mice responding,[1],1
same,Highly antigenic / highly reactive peptide in the human cohort,[2],highly reactive
same,Human immunoreactive in at least one IGRA+ donor (category),[2],at least one IGRA + donor
